Values quoted from earlier work, collected in US5710046A, “Tagging hydrocarbons for subsequent identification” (Amoco Corporation, priority 1994, dated 1998).

[1] = dispersed in methanol or benzene

In the case of `CCN1C(=CC=CC=CC=Cc2sc3ccc4ccccc4c3[n+]2CC)Sc2ccc3ccccc3c21` [DDTC, 3,3'-diethyl-2,2'-(4,5', 4',5'-dibenzo) thiatricarbocyanine iodide], the fluorescence wavelength [1] is given as “approximately 840 nanometers”, the strong absorption [1] is given as 786 nanometers and the fluorescence (in water) is given as “completely non-fluorescent”. The solubility (in water) was “less soluble”.
